Assay results published in PubChem BioAssay (NCI).
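Five compound concentrations were applied to cells in 96-well plates for 48 hours; endpoints were derived by simple linear interpolation of the resulting dose-response curve. At the TGI there is no net growth.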

How the values were obtained:
Experiment in all cases: inhibition of tumour cell growth, NCI panel, 48 h
K-562 leukemia = test system: K-562 leukemia
SF-539 CNS = test system: SF-539 CNS
MDA-MB-231 breast = test system: MDA-MB-231 breast
TK-10 renal = test system: TK-10 renal
DU-145 prostate = test system: DU-145 prostate
M14 melanoma = test system: M14 melanoma
HL-60(TB) leukemia = test system: HL-60(TB) leukemia
U251 CNS = test system: U251 CNS
OVCAR-5 ovarian = test system: OVCAR-5 ovarian
SW-620 colon = test system: SW-620 colon
HCT-15 colon = test system: HCT-15 colon
NCI-H522 lung = test system: NCI-H522 lung
MDA-MB-435 = test system: MDA-MB-435
A549 NSCLC = test system: A549 NSCLC
NCI-H226 lung = test system: NCI-H226 lung
BT-549 breast = test system: BT-549 breast
SNB-75 CNS = test system: SNB-75 CNS
OVCAR-3 ovarian = test system: OVCAR-3 ovarian
UACC-257 melanoma = test system: UACC-257 melanoma
SK-MEL-2 melanoma = test system: SK-MEL-2 melanoma

Structure (SMILES) | TGI (K-562 leukemia) | TGI (SF-539 CNS) | TGI (MDA-MB-231 breast) | TGI (TK-10 renal) | TGI (DU-145 prostate) | TGI (M14 melanoma) | TGI (HL-60(TB) leukemia) | TGI (U251 CNS) | TGI (OVCAR-5 ovarian) | TGI (SW-620 colon) | TGI (HCT-15 colon) | TGI (NCI-H522 lung) | TGI (MDA-MB-435) | TGI (A549 NSCLC) | TGI (NCI-H226 lung) | TGI (BT-549 breast) | TGI (SNB-75 CNS) | TGI (OVCAR-3 ovarian) | TGI (UACC-257 melanoma) | TGI (SK-MEL-2 melanoma)
Cc1[nH]n(-c2ccccc2)c(=O)c1C(N(CCc1ccccc1)C1=NCC(C)S1)(C(F)(F)F)C(F)(F)F (stereo not given) | > 100 µM | 32.3 µM | 65.6 µM | > 100 µM | > 100 µM | 32.2 µM | 52.5 µM | 31.2 µM | 88 µM | 95.3 µM | 41.1 µM | 28.2 µM | > 100 µM | 83.7 µM | 29.5 µM | 49.1 µM | 50.1 µM | > 100 µM | 56.7 µM | 22.4 µM
CC(C)NC(=O)OCc1c(COC(=O)NC(C)C)c(-c2cc[n+](COC(=O)C(C)C)cc2)n2c1CCC2 | > 100 µM | > 100 µM | > 100 µM | > 100 µM | > 100 µM | > 100 µM | > 77.7 µM | > 100 µM | > 100 µM | > 100 µM | > 100 µM | > 100 µM | > 100 µM | > 100 µM | > 100 µM | > 100 µM | > 100 µM | > 100 µM | > 100 µM | > 100 µM
COC(=O)N/N=C(/c1nc2ccc([N+](=O)[O-])cc2[nH]c1=O)C(O)c1ccc(OC)c(OC)c1 (stereo not given) | > 100 µM | > 100 µM | > 100 µM | > 100 µM | > 100 µM | > 100 µM | > 100 µM | > 100 µM | > 100 µM | > 100 µM | > 78.4 µM | > 100 µM | > 100 µM | > 100 µM | > 100 µM | > 100 µM | > 100 µM | > 100 µM | > 100 µM | > 100 µM
O=C1CSC(c2ccccc2O)N1c1nc2cc3sc(N4C(=O)CSC4c4ccccc4O)nc3cc2s1 (stereo not given) | > 100 µM | > 100 µM | > 100 µM | > 100 µM | > 100 µM | > 100 µM | > 100 µM | > 100 µM | > 100 µM | > 100 µM | > 100 µM | > 100 µM | > 100 µM | > 100 µM | > 88.1 µM | > 100 µM | > 100 µM | > 100 µM | > 77.5 µM | > 100 µM
